One series concerns AGE formation. The experiment in a line: Bovine serum albumin-methylglyoxal analysis, AGE formation (intermediate stage). In kind it is biochemical. The procedure:
(2) Bovine Serum Albumin—Methylglyoxal Analysis with Respect to AGE Formation (Intermediate Stage)
Bovine serum albumin (50 mg/mL) was incubated with methylglyoxal (100 mM) in a sodium phosphate buffer ([…], pH 7.4) at 37° C. for 24 hours in the presence of various concentrations of compounds (including a control group).
All reagents and samples were sterilized by filtration through […] membrane filters. Fluorescence intensity was measured at an excitation wavelength of 355 nm and an emission wavelength of 460 nm using a luminescence spectrometer LS50B (Perkin-Elmer Ltd., Buckinghamshire, England) (Wu & Yen, 2005). The test was conducted using aminoguanidine as a positive control group. The concentration of each test sample showing 50% inhibitory activity (IC50) was estimated from the least squares regression line of logarithmic concentrations plotted against the residual activity.

Series [1] is described as follows: Solubility analysis in distilled water (HPLC). It is filed as physicochemical. Particulars: for solubility in water, times higher than Comparative Example 1: versus Comparative Example 1. The method, then: The chrysin and derivatives thereof were dissolved in distilled water and sonicated for 1 hour to maximize solubility and incubated at 37° C. After sonication, undissolved samples were removed by centrifugation (7000 g, 37° C., 5 min). The concentration of the sample was analyzed by HPLC by diluting the supernatant with methanol and filtering through a 0.45 μm disposable syringe filter (Advantec, Dublin, Calif., USA).

The subject of another series is crosslinking of AGEs. The experiment in a line: N-acetyl-glycyl-lysine-methyl ester D-ribose assay, crosslinking of AGEs (late stage). It is filed as biochemical. Particulars: for IC50: read-out: IC50 (AGE crosslinking, late stage). The procedure: (3) N-acetyl-glycyl-lysine-methyl ester D-ribose assay on crosslinking of AGEs (late stage)
This test was used to evaluate the ability of the sample to inhibit crosslinking of GK peptides in the presence of D-ribose using the method described by Rahbar et al. (1999). The GK peptide (26.7 mg/mL) was incubated with D-ribose (200 mg/mL) under aseptic conditions in sodium phosphate buffer (0.5 M, pH 7.4) at 37° C. for 24 hours. The synthesized compound was added to the model system at a final concentration of 1 mM, excluding the aminoguanidine used at 10 mM and 50 mM. At the end of the incubation period, fluorescence intensity was measured at an excitation wavelength of 335 nm and an emission wavelength of 460 nm.

For series [2], the system named is formation of Amadori compound. The experiment in a line: Hemoglobin-δ-gluconolactone assay, formation of Amadori compound (initial stage). In kind it is biochemical, human. Conditions: for initial inhibitory activity, times higher than the positive control: versus positive control group (aminoguanidine). The procedure:
(1) Analysis of Hemoglobin-δ-Gluconolactone with Respect to Formation of Amadori Compound (Initial Stage)
Evaluation of the initial stage of protein glycosylation was determined by δ-gluconolactone assay (Rahbar et al., 1999). Briefly, fresh human blood (50 mg/mL) was cultured with glucose (144 mg/mL) in a phosphate buffer (pH 7.4) containing 0.2 g/L of NaN3 under conditions of […] at 37° C. for 7 days.
In certain experiments, an indicated sample was added in a concentration range of 0.01 to 1 mM to a model system. Fluorescence of the sample was measured at maximum excitation and emission values of 355 nm and 460 nm, respectively. The test was conducted using aminoguanidine, a known inhibitor, as a positive control group.

The next series relates to RAW 264.7 cells. The experiment in a line: NO production in LPS-induced RAW 264.7 cells (Griess reagent). Conditions: 24 hours, FIG. 1A. It is filed as cell-based. The procedure: The cytotoxicity of chrysin and derivatives thereof in RAW 264.7 cells was investigated using a MTS assay kit. Cells (1.6×10^4/well) were cultured in 96-well plates and treated with samples (10, 25 and 100 μM) for 12, 24, 48 and 72 hours. After culture, a MTS solution was incubated at 20 μL/well at 37° C. in a humidified 5% CO2 atmosphere for 90 minutes. The optical density at 490 nm was measured three times using an EL-800 universal microplate reader (Bio-Tek Instrument Inc., Winooski, USA). The cell viability of a untreated group was set at 100%. RAW 264.7 cells were seeded at a density of 4×10^5 cells/well on a 12-well plate and incubated with LPS (1 μg/mL) and samples of various concentrations for 24 hours. The concentration of […] (NO) in the medium was measured using a Griess reagent system described by the manufacturer. The production of NO was measured at 570 nm using an EL-800 Universal microplate reader (Bio-Tek Instrument Inc., Winooski, USA) and compared with the nitrite standard calibration curve.
On the technique in general: Nitrite, measured by Griess reagent, commonly stands in for NO production.

Converted amounts (≈) assume the structure as drawn. Where two headings read alike, the source gives them in different places.

For `O=c1cc(-c2ccccc2)oc2cc(O)cc(O)c12` [Comparative Example 1, 5,7-dihydroxy-2-phenyl-4H-chromen-4-one, reference compound], in the series on AGE formation (versus aminoguanidine), the “activity against AGE formation, times higher than the positive control group” value was determined as 5.48 times. Moreover, the Solubility in water in series [1] (37° C.) is 30 µM (≈ 7.63 µg/mL). For the same compound, the “inhibitory activity (late stage)” value in the series with crosslinking of AGEs (at a concentration of 10.0 mg/mL) is listed as “did not exhibit inhibitory activity”.
What is called IC50 is the midpoint of a concentration-inhibition curve. Usually solubility stands for the concentration that dissolves in the medium under given conditions. The low end stands for little dissolved substance, the high end for much dissolved substance. For the compound `N=C(N)NN` [Positive control group (Aminoguanidine), aminoguanidine, reference compound], the half-maximal inhibitory concentration (IC50) is 137 µM in the series with AGE formation and 1900 µM in the series with crosslinking of AGEs. In series [1] (distilled water, water, thermodynamic from solid, 37° C.), this compound displayed a solubility at 1 h of 30 µM (≈ 2.22 µg/mL).
For the compound `CC(=O)Oc1cc(O)c2c(=O)cc(-c3ccccc3)oc2c1` [Synthesis Example 1, 5-hydroxy-4-oxo-2-phenyl-4H-chromen-7-yl acetate], the half-maximal inhibitory concentration (IC50) in the series with AGE formation came out at 21.6 µM. In addition, in series [2], the “initial inhibitory activity, times higher than the positive control” value (“initial inhibitory activity” for short) amounted to 4.66 times. Also, in series [1] (37° C.), the Solubility in water was 86 µM. In series [1], the “solubility in water, times higher than Comparative Example 1” value is recorded as 2.87 times.
`CC(=O)Oc1cc(OC(C)=O)c2c(=O)cc(-c3ccccc3)oc2c1` [Synthesis Example 2, 4-oxo-2-phenyl-4H-chromen-5,7-diyl diacetate]: the concentration for half-maximal inhibition (IC50) in the series with AGE formation came out at 0.91 µM; in the series on crosslinking of AGEs (unit inferred) it was 22.3 µM. Besides, the “inhibitory activity against formation of the Amadori compound, times higher than chrysin” value in series [2] (versus chrysin) worked out at 66.96 times. Further, the “initial inhibitory activity” value in series [2] was 422.07 times. In series [1] (37° C.), this compound returned a Solubility in water of 265 µM. The “solubility in water, times higher than Comparative Example 1” value in series [1] was 8.83 times. Moreover, the “effect on NO production” value in the series with RAW 264.7 cells was “inhibited NO in a concentration-dependent manner”.
Turning to `COc1cc(OC)c2c(=O)cc(-c3ccccc3)oc2c1` [Synthesis Example 5, 5,7-dimethoxy-2-phenyl-4H-chromen-4-one], the half-maximal inhibitory concentration (IC50) in the series with AGE formation amounted to 41.8 µM; in the series with crosslinking of AGEs (unit inferred), 39.9 µM. The “initial inhibitory activity” value in series [2] was determined as 13.92 times.

(Values after patent US20220105072A1, “PHARMACEUTICAL COMPOSITION FOR PREVENTING OR TREATING DIABETES COMPLICATIONS COMPRISING NOVEL CHRYSIN DERIVATIVE COMPOUND AS ACTIVE INGREDIENT” (FRONTBIO INC., priority 2018, published 2022).)
